Patent US11066396B2 (priority 2016, dated 2021)

Molecular target: HDAC1 (Homo sapiens (Human), UniProt Q13547)
Details: read-out: HDAC1 IC50

Chain of HDAC1 (Q13547 whole entry): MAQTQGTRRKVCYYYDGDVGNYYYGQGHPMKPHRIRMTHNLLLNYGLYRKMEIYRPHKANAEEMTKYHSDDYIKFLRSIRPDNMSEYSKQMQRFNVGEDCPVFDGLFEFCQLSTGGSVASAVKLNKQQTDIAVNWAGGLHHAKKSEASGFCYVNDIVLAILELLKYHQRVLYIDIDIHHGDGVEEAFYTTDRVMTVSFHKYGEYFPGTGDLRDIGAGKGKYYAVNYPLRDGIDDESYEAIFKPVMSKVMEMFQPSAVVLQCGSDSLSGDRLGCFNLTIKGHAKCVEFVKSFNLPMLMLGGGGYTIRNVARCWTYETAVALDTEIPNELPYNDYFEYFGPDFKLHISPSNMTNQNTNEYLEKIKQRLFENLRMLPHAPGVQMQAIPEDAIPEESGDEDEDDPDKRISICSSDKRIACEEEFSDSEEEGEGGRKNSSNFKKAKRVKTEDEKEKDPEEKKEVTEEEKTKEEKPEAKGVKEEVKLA

In order of falling IC50:
1. CCn1cc(COc2cc(-c3noc(C(F)(F)F)n3)ccn2)c(C)n1 [Example 206, 2-[(1-ethyl-3-methyl-1H-pyrazol-4-yl)methoxy]-4-[5-(trifluoromethyl)-1,2,4-oxadiazol-3-yl]pyridine]  4.2 µM
2. FC(F)(F)c1nc(-c2ccnc(OCc3ccn(C4CC4)n3)c2)no1 [Example 222, 2-[(1-cyclopropyl-1H-pyrazol-3-yl)methoxy]-4-[5-(trifluoromethyl)-1,2,4-oxadiazol-3-yl]pyridine]  3.5 µM
3. CC1(Cc2ccc(-c3noc(C(F)(F)F)n3)cc2)C(=O)Nc2ccc(F)cc21 (stereo not shown) [Example 348, 5-fluoro-3-methyl-3-{4-[5-(trifluoromethyl)-1,2,4-oxadiazol-3-yl]benzyl}-1,3-dihydro-2H-indol-2-one]  2.4 µM
4. COc1ccccc1C1CCC(=O)N1c1ccc(-c2noc(C(F)(F)F)n2)cc1F (racemic) [Example 315, 1-{2-fluoro-4-[5-(trifluoromethyl)-1,2,4-oxadiazol-3-yl]phenyl}-5-(2-methoxyphenyl)pyrrolidin-2-one]  2.1 µM
5. NC(=O)c1cccc(CCOc2cc(-c3noc(C(F)(F)F)n3)ccn2)c1 [Example 459, 3-[2-({4-[5-(trifluoromethyl)-1,2,4-oxadiazol-3-yl]pyridin-2-yl}oxy)ethyl]benzamide]  1.8 µM
6. FC(F)(F)c1nc(-c2ccnc(OCc3cnc(Cl)cn3)c2)no1 [Example 214, 2-chloro-5-[({4-[5-(trifluoromethyl)-1,2,4-oxadiazol-3-yl]pyridin-2-yl}oxy)methyl]pyrazine]  1.4 µM
7. COCCn1nc(C(=O)N(Cc2ccc(-c3noc(C(F)(F)F)n3)cc2)c2cccc(C(F)(F)F)c2)ccc1=O [Example 86, 1-(2-methoxyethyl)-6-oxo-N-(4-(5-(trifluoromethyl)-1,2,4-oxadiazol-3-yl)benzyl)-N-(3-(trifluoromethyl)phenyl)-1,6-dihydropyridazine-3-carboxamide]  1.2 µM
8. O=C(NCc1ccc(-c2noc(C(F)(F)F)n2)cc1)c1cccc(O)c1 [Example 205, 3-hydroxy-N-{4-[5-(trifluoromethyl)-1,2,4-oxadiazol-3-yl]benzyl}benzamide]  0.72 µM
9. O=C1CCc2ncccc2N1Cc1ccc(-c2noc(C(F)(F)F)n2)cn1 [Example 328, 1-({5-[5-(trifluoromethyl)-1,2,4-oxadiazol-3-yl]pyridin-2-yl}methyl)-3,4-dihydro-1,5-naphthyridin-2(1H)-one]  0.58 µM
10. FC(F)(F)c1nc(-c2ccc(COc3ccc4ccccc4n3)nc2)no1 [Example 461, 2-({5-[5-(trifluoromethyl)-1,2,4-oxadiazol-3-yl]pyridin-2-yl}methoxy)quinoline]  0.5 µM
11. O=C1CCc2cc(C(F)(F)F)ccc2N1Cc1ccc(-c2noc(C(F)(F)F)n2)cn1 [Example 464, 6-(trifluoromethyl)-1-({5-[5-(trifluoromethyl)-1,2,4-oxadiazol-3-yl]pyridin-2-yl}methyl)-3,4-dihydroquinolin-2(1H)-one]  0.3 µM
12. O=c1ccc2ccc(F)cc2n1Cc1ccc(-c2noc(C(F)(F)F)n2)cc1 [Example 322, 7-fluoro-1-{4-[5-(trifluoromethyl)-1,2,4-oxadiazol-3-yl]benzyl}quinolin-2(1H)-one]  0.26 µM
13. O=C1CCc2ccc(Br)cc2N1Cc1ccc(-c2noc(C(F)(F)F)n2)cc1 [Example 319, 7-bromo-1-{4-[5-(trifluoromethyl)-1,2,4-oxadiazol-3-yl]benzyl}-3,4-dihydroquinolin-2(1H)-one]  0.18 µM
14. O=c1cnc2ccccc2n1Cc1ccc(-c2noc(C(F)(F)F)n2)cn1 [Example 467, 1-({5-[5-(trifluoromethyl)-1,2,4-oxadiazol-3-yl]pyridin-2-yl}methyl)quinoxalin-2(1H)-one]  0.17 µM
15. O=C1CCc2ccccc2N1Cc1ccc(-c2noc(C(F)(F)F)n2)cn1 [Example 324, 1-({5-[5-(trifluoromethyl)-1,2,4-oxadiazol-3-yl]pyridin-2-yl}methyl)-3,4-dihydroquinolin-2(1H)-one]  0.15 µM
16. O=C1CSc2ccccc2N1Cc1ccc(-c2noc(C(F)(F)F)n2)cn1 [Example 463, 4-({5-[5-(trifluoromethyl)-1,2,4-oxadiazol-3-yl]pyridin-2-yl}methyl)-2H-1,4-benzothiazin-3(4H)-one]  0.13 µM

Molecular target: HDAC8 (Homo sapiens (Human), UniProt Q9BY41)
Sequence (Q9BY41 whole entry): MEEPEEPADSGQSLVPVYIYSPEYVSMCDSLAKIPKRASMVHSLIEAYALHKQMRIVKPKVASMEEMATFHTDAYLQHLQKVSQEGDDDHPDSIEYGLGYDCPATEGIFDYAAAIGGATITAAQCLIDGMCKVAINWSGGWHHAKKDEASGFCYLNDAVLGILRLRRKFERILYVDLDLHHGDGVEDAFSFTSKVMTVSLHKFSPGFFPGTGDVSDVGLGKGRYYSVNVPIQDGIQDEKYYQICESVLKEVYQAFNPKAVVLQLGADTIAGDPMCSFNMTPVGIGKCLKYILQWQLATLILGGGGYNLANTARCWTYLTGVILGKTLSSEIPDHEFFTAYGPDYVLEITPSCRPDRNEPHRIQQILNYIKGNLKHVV
Details: read-out: HDAC8 IC50

In order of rising IC50:
1. O=C(Nc1ccccc1)c1cccc(NCc2ccc(-c3noc(C(F)(F)F)n3)cn2)c1 [Example 440, N-phenyl-3-[({5-[5-(trifluoromethyl)-1,2,4-oxadiazol-3-yl]pyridin-2-yl}methyl)amino]benzamide]  0.28 µM
2. O=C(NCc1ccccc1)c1ccccc1NCc1ccc(-c2noc(C(F)(F)F)n2)cn1 [Example 448, N-benzyl-2-[({5-[5-(trifluoromethyl)-1,2,4-oxadiazol-3-yl]pyridin-2-yl}methyl)amino]benzamide]  0.53 µM
3. O=C1NCCN(c2ccc(-c3noc(C(F)(F)F)n3)cn2)C1c1cccc(F)c1 (racemic) [Example 132, 3-(3-fluorophenyl)-4-(5-(5-(trifluoromethyl)-1,2,4-oxadiazol-3-yl)pyridin-2-yl)piperazin-2-one]  0.63 µM
4. Cc1cc(=O)n2c(n1)CN(c1ccc(-c3noc(C(F)(F)F)n3)cn1)CC2 [Example 158, 2-methyl-8-(5-(5-(trifluoromethyl)-1,2,4-oxadiazol-3-yl)pyridin-2-yl)-6,7,8,9-tetrahydro-4H-pyrazino[1,2-a]pyrimidin-4-one]  0.75 µM
5. OCC1CC(c2ccccc2)N(c2ccc(-c3noc(C(F)(F)F)n3)cn2)C1 (racemic) [Example 152, (5-phenyl-1-(5-(5-(trifluoromethyl)-1,2,4-oxadiazol-3-yl)pyridin-2-yl)pyrrolidin-3-yl)methanol]  0.84 µM
6. Cc1noc([C@H]2CCCCN2c2ccc(-c3noc(C(F)(F)F)n3)cn2)n1 [Example 138, (R)-3-methyl-5-(1-(5-(5-(trifluoromethyl)-1,2,4-oxadiazol-3-yl)pyridin-2-yl)piperidin-2-yl)-1,2,4-oxadiazole]  1.2 µM
7. FC(F)(F)c1nc(-c2ccc(CNc3cc[nH]n3)nc2)no1 [Example 432, N-({5-[5-(trifluoromethyl)-1,2,4-oxadiazol-3-yl]pyridin-2-yl}methyl)-1H-pyrazol-3-amine]  1.3 µM
8. O=C(c1cccc(NCc2ccc(-c3noc(C(F)(F)F)n3)cn2)c1)N1CCCC1 [Example 439, 3-(pyrrolidin-1-ylcarbonyl)-N-({5-[5-(trifluoromethyl)-1,2,4-oxadiazol-3-yl]pyridin-2-yl}methyl)aniline]  1.4 µM
9. FC(F)(F)c1nc(-c2ccc(N3CCCC3c3cccnc3)nc2)no1 (racemic) [Example 151, 3-(6-(2-(pyridin-3-yl)pyrrolidin-1-yl)pyridin-3-yl)-5-(trifluoromethyl)-1,2,4-oxadiazole]  1.6 µM
10. FC(F)(F)c1nc(-c2ccc(CNCC3CN(c4ccccc4)CCO3)nc2)no1 (racemic) [Example 454, 1-(4-phenylmorpholin-2-yl)-N-({5-[5-(trifluoromethyl)-1,2,4-oxadiazol-3-yl]pyridin-2-yl}methyl)methanamine]  1.7 µM
11. O=C1CCc2ccc(F)cc2N1Cc1ccc(-c2noc(C(F)(F)F)n2)cc1 [Example 318, 7-fluoro-1-{4-[5-(trifluoromethyl)-1,2,4-oxadiazol-3-yl]benzyl}-3,4-dihydroquinolin-2(1H)-one]  1.8 µM
12. Cc1nonc1C1CCCN1c1ccc(-c2noc(C(F)(F)F)n2)cn1 (racemic) [Example 155, 3-(6-(2-(4-methyl-1,2,5-oxadiazol-3-yl)pyrrolidin-1-yl)pyridin-3-yl)-5-(trifluoromethyl)-1,2,4-oxadiazole]  1.8 µM
13. FC(F)(F)c1nc(-c2ccc(N3CCCC3c3ccncc3)nc2)no1 (racemic) [Example 150, 3-(6-(2-(pyridin-4-yl)pyrrolidin-1-yl)pyridin-3-yl)-5-(trifluoromethyl)-1,2,4-oxadiazole]  1.8 µM
14. FC(F)(F)c1nc(-c2ccc(CNCC3CN(Cc4ccccc4)CCO3)nc2)no1 (racemic) [Example 453, 1-(4-benzylmorpholin-2-yl)-N-({5-[5-(trifluoromethyl)-1,2,4-oxadiazol-3-yl]pyridin-2-yl}methyl)methanamine]  1.9 µM
15. FC(F)(F)c1nc(-c2ccc(N3CCOC[C@H]3c3ccccc3)nc2)no1 [Example 144, (R)-3-phenyl-4-(5-(5-(trifluoromethyl)-1,2,4-oxadiazol-3-yl)pyridin-2-yl)morpholine]  2.7 µM
16. FC(F)(F)c1nc(-c2ccc(N3CCCCC3c3ccccn3)nc2)no1 (racemic) [Example 147, 3-(6-(2-(pyridin-2-yl)piperidin-1-yl)pyridin-3-yl)-5-(trifluoromethyl)-1,2,4-oxadiazole]  3.2 µM
17. COCCn1nc(C(=O)N(Cc2ccc(-c3noc(C(F)(F)F)n3)cc2)c2cccc(C(F)(F)F)c2)ccc1=O [Example 86, 1-(2-methoxyethyl)-6-oxo-N-(4-(5-(trifluoromethyl)-1,2,4-oxadiazol-3-yl)benzyl)-N-(3-(trifluoromethyl)phenyl)-1,6-dihydropyridazine-3-carboxamide]  3.3 µM
18. FC(F)(F)c1nc(-c2ccc(N3CCCCC3c3cccnc3)nc2)no1 (racemic) [Example 157, 3-(6-(2-(pyridin-3-yl)piperidin-1-yl)pyridin-3-yl)-5-(trifluoromethyl)-1,2,4-oxadiazole]  3.3 µM
19. FC(F)(F)c1nc(-c2ccc(N3CCCC3c3ccccn3)nc2)no1 (racemic) [Example 154, 3-(6-(2-(pyridin-2-yl)pyrrolidin-1-yl)pyridin-3-yl)-5-(trifluoromethyl)-1,2,4-oxadiazole]  3.4 µM
20. CC(=O)N1CCC(CNCc2ccc(-c3noc(C(F)(F)F)n3)cn2)CC1 [Example 455, 1-(1-acetylpiperidin-4-yl)-N-({5-[5-(trifluoromethyl)-1,2,4-oxadiazol-3-yl]pyridin-2-yl}methyl)methanamine]  3.8 µM
21. CCOC(=O)N1CCN(c2ccc(-c3noc(C(F)(F)F)n3)cn2)C(c2ccccc2)C1 (racemic) [Example 159, ethyl 3-phenyl-4-(5-(5-(trifluoromethyl)-1,2,4-oxadiazol-3-yl)pyridin-2-yl)piperazine-1-carboxylate]  4 µM
22. COc1ccccc1C1CCC(=O)N1c1ccc(-c2noc(C(F)(F)F)n2)cc1F (racemic) [Example 315, 1-{2-fluoro-4-[5-(trifluoromethyl)-1,2,4-oxadiazol-3-yl]phenyl}-5-(2-methoxyphenyl)pyrrolidin-2-one]  8 µM
23. FC(F)(F)c1cccc(C2COCCN2c2ccc(-c3noc(C(F)(F)F)n3)cn2)c1 (racemic) [Example 146, 4-(5-(5-(trifluoromethyl)-1,2,4-oxadiazol-3-yl)pyridin-2-yl)-3-(3-(trifluoromethyl)phenyl)morpholine]  20 µM
24. FC(F)(F)c1nc(-c2ccc(COc3ccc4ccccc4n3)nc2)no1 [Example 461, 2-({5-[5-(trifluoromethyl)-1,2,4-oxadiazol-3-yl]pyridin-2-yl}methoxy)quinoline]  21 µM
